Calls of active or inactive are those of the source.
Columns and labels:
Fatty acid synthase [1] = biological target: T1, Fatty acid synthase (Homo sapiens, UniProt P49327); assay: FAS thioesterase domain inhibitors, dose response, biochemical, endpoint fluorescence intensity, uHTS hits (AID 624327); assay type: functional;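 also: fluorescence from hydrolysis of an O-methyl fluorescein acyl ester substrate by the enzyme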
Fatty acid synthase [2] = biological target: T1, Fatty acid synthase; assay: FAS thioesterase domain inhibitors, dose response, biochemical, kinetic fluorescence intensity (AID 624326); assay type: functional;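 also: rate of fluorescence rise from hydrolysis of a fluorogenic O-methyl fluorescein ester substrate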
Aminopeptidase N = biological target: T2, Aminopeptidase N (Plasmodium falciparum FcB1/Columbia, UniProt O96935); assay: P. falciparum M1AAP inhibitors, biochemical, fluorogenic H-Leu-NHMec substrate, 1536-well (AID 1445); parameters: species or system Plasmodium falciparum 3D7, 3D7
T2 sequence (O96935 whole entry): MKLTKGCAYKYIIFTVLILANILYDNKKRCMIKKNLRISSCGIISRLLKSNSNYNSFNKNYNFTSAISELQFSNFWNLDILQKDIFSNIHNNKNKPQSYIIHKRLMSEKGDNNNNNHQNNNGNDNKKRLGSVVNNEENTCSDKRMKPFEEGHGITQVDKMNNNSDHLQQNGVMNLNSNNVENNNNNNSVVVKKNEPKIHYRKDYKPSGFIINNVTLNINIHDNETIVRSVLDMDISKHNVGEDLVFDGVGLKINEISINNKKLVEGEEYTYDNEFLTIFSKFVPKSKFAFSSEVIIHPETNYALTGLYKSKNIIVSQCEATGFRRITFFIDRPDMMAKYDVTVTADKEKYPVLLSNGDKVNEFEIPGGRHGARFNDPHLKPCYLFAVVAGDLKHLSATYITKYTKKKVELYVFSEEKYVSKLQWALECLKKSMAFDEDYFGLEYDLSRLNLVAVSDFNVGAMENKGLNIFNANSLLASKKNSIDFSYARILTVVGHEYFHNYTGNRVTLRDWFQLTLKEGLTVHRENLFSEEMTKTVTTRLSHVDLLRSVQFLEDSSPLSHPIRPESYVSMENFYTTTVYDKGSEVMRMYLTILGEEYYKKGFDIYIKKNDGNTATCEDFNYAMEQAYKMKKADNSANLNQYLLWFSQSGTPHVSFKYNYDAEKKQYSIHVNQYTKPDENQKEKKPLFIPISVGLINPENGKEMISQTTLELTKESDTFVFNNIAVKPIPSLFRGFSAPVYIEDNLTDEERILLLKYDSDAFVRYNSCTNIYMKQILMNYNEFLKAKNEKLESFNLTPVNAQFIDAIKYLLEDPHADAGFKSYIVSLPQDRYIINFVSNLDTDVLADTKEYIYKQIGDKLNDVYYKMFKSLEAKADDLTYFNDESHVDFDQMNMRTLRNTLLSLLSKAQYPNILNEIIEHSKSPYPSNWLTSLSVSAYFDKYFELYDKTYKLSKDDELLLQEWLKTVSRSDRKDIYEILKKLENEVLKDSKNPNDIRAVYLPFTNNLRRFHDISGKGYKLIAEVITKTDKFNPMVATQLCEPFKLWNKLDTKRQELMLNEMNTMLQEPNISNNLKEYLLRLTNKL

[3] = biological target: Induced myeloid leukemia cell differentiation protein Mcl-1 (Homo sapiens, UniProt Q07820); assay type: functional
Genome polyprotein = Genome polyprotein (dengue virus type 2, UniProt P29990); assay: Dengue-2 NS5 methyltransferase inhibitors, primary screen, biochemical, confirmation dose response (AID 588689); assay type: functional
Protein RecA = biological target: T3, Protein RecA (Mycobacterium tuberculosis, UniProt P9WHJ3); assay: Fluorescence Cell-Free Homogeneous Dose Retest to Identify Inhibitors of RecA-Intein Splicing Activity. [Related pubchem assays (depositor defined):AID2097, AID2223, AID489010, AID492950]; assay type: functional
T3 sequence (P9WHJ3 whole entry): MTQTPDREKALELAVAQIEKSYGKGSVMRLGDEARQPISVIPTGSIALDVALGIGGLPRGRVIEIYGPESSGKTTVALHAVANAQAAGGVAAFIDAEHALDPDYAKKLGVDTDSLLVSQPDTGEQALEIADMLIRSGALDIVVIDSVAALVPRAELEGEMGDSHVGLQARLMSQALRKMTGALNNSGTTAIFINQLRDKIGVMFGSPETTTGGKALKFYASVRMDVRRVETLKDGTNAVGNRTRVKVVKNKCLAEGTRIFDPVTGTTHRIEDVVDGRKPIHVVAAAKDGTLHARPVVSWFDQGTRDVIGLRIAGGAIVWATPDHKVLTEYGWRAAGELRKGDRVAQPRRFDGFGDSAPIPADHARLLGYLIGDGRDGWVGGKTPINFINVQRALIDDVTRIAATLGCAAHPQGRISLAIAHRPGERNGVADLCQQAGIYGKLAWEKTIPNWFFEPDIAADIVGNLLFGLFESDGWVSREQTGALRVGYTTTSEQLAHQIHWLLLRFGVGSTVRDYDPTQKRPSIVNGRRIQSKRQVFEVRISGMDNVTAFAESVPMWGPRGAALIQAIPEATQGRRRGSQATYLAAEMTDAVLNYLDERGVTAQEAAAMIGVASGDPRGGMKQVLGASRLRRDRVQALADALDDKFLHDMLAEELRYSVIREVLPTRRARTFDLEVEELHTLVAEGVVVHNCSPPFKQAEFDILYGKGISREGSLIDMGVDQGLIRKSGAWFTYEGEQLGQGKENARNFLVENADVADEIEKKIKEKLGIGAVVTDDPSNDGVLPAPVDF

[4] = biological target: T4, Replicative DNA helicase DnaB (Mycobacterium tuberculosis, UniProt P9WMR3); assay: DnaB intein splicing inhibitors, dose response, biochemical, cell-free fluorescence (AID 449749); assay type: functional
T4 sequence (P9WMR3 whole entry): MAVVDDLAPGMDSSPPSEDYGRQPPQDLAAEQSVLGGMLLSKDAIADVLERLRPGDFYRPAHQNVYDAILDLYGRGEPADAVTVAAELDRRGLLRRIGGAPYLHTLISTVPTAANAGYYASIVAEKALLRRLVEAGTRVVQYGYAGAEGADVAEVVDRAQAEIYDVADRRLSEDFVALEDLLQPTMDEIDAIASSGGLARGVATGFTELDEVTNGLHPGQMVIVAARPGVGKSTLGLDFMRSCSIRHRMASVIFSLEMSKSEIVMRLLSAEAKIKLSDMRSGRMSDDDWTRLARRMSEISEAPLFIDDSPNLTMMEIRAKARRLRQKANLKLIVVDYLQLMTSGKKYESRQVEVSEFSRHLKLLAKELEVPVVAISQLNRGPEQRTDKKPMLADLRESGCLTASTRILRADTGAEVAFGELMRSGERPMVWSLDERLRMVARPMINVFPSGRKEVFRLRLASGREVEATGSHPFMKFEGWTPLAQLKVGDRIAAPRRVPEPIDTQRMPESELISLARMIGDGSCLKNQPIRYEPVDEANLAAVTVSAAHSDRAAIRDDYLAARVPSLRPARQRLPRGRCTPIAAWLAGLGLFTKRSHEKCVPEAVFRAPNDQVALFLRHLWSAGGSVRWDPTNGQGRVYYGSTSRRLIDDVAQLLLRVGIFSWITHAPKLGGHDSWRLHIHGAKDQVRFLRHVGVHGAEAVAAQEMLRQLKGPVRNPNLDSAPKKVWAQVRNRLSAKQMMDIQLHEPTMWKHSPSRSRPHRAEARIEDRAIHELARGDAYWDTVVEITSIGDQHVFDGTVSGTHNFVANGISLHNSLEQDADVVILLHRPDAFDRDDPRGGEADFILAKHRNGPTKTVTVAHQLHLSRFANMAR

Leucine aminopeptidase = biological target: T5, Leucine aminopeptidase (Plasmodium falciparum 3D7, UniProt Q8IL11); assay: P. falciparum M17LAP inhibitors, primary screen, biochemical, fluorogenic H-Leu-NHMec substrate, 1536-well (AID 1619); assay type: functional
T5 sequence (Q8IL11 whole entry): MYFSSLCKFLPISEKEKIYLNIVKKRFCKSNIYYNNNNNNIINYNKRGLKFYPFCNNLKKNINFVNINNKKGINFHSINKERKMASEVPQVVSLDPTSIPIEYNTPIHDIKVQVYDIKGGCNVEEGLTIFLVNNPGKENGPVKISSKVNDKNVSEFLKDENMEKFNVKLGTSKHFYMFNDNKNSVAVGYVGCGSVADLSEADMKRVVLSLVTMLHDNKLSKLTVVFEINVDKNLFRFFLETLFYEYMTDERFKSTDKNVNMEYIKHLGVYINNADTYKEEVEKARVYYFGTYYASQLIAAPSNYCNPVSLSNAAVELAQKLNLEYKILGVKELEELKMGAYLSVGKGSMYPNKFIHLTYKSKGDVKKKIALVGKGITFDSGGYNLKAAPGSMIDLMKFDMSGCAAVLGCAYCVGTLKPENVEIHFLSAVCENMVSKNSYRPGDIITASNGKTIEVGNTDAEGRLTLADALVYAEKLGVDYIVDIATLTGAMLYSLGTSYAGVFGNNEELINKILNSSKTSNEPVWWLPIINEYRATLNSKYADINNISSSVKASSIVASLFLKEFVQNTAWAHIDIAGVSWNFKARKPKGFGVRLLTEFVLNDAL

[5] = HEp-2 cell cytotoxicity, dose response, cytotoxicity control for RSV inhibitor project, HTS (AID 2410); assay type: functional; settings: human respiratory syncytial virus
[6] = biological target: Eukaryotic translation initiation factor 4E (Mus musculus, UniProt P63073); assay: eIF4E–eIF4G protein interaction inhibitors, dose response, biochemical, TR-FRET (AID 855); assay type: functional;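 also: potency for disrupting eIF4E binding to eIF4GI seen as loss of FRET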
Nonstructural protein 1 = Nonstructural protein 1 (Influenza A virus, UniProt Q194T2); assay type: functional, Influenza A virus (A/California/07/2009(H1N1))
H4 = assay: Luminescence Cell-Based Dose Response HTS to Identify Activators of 5'UTR Stem-Loop Driven Prion Protein mRNA Translation in H4 Neuroglioblastoma Cells. [Related pubchem assays: 1829 (Project Summary), 1814 (Primary HTS)]; assay type: functional; settings: Homo sapiens
[7] = Luminescence Cell-Based Dose Response HTS to Identify Activators of Luciferase Translation or Activity in H4 […] Cells. [Related pubchem assays: 1829 (Project Summary), 1814 (Primary HTS)]; assay type: functional
[8] = Luminescence Cell-Based Dose Confirmation HTS to Identify Activators of 5'UTR Stem-Loop Driven Alpha-Synuclein mRNA Translation in H4 Neuroglioblastoma Cells. [Related pubchem assays: 1829 (Project Summary), 1814 (Primary HTS)]; assay type: functional
[9] = system: Streptococcus sp. 'group A'; assay: growth inhibition of control SK(-) GAS strain, dose response, counter-screen for streptokinase expression inhibitor project, luminescence, kanamycin, BacTiterGlo, confirmation (AID 1900); assay type: functional, organism-based
Streptococcus = assay: Group A Streptococcus viability loss, dose response, counter-screen for streptokinase expression inhibitor project, luminescence, BacTiterGlo (AID 1915); assay type: functional, organism-based;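 also: potency for reduction of bacterial viability or growth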
Streptokinase A = biological target: T6, Streptokinase A (Streptococcus pyogenes serotype M1, UniProt P10520); assay: S. pyogenes streptokinase expression inhibitors, potency, dose response, plasminogen activation absorbance, OD405 (AID 1914); assay type: functional, Streptococcus pyogenes M1 GAS;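 also: secreted streptokinase activity via plasminogen activation per viability signal from cell pellet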
T6 sequence (P10520 whole entry): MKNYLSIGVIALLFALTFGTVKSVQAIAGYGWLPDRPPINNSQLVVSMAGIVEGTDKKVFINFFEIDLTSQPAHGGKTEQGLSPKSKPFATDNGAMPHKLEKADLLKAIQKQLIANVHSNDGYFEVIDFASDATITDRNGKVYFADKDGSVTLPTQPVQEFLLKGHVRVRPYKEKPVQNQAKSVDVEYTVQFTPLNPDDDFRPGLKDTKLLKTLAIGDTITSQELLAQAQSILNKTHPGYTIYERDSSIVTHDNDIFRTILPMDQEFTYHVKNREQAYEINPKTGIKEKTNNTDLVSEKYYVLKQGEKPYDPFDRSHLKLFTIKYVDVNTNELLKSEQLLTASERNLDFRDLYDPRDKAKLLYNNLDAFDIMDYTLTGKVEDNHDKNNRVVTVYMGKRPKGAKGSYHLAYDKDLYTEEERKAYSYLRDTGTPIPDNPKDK

[10] = microbe, parasite or virus in culture; assay type: functional; settings: Mycobacterium tuberculosis

Sequence of Nonstructural protein 1 (Q194T2 whole entry): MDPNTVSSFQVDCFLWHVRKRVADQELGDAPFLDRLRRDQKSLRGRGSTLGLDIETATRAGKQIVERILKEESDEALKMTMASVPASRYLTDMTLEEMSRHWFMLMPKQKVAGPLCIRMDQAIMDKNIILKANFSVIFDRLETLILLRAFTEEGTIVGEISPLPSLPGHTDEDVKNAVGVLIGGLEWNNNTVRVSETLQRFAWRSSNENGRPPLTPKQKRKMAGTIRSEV
Sequence of Eukaryotic translation initiation factor 4E (P63073 whole entry): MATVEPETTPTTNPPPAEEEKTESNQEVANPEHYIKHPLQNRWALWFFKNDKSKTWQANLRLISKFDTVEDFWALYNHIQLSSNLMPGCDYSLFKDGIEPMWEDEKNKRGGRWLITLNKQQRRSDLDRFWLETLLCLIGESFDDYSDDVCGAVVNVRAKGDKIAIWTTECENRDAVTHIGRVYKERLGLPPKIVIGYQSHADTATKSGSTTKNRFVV
T1 sequence (P49327 whole entry, the tested form may be a part): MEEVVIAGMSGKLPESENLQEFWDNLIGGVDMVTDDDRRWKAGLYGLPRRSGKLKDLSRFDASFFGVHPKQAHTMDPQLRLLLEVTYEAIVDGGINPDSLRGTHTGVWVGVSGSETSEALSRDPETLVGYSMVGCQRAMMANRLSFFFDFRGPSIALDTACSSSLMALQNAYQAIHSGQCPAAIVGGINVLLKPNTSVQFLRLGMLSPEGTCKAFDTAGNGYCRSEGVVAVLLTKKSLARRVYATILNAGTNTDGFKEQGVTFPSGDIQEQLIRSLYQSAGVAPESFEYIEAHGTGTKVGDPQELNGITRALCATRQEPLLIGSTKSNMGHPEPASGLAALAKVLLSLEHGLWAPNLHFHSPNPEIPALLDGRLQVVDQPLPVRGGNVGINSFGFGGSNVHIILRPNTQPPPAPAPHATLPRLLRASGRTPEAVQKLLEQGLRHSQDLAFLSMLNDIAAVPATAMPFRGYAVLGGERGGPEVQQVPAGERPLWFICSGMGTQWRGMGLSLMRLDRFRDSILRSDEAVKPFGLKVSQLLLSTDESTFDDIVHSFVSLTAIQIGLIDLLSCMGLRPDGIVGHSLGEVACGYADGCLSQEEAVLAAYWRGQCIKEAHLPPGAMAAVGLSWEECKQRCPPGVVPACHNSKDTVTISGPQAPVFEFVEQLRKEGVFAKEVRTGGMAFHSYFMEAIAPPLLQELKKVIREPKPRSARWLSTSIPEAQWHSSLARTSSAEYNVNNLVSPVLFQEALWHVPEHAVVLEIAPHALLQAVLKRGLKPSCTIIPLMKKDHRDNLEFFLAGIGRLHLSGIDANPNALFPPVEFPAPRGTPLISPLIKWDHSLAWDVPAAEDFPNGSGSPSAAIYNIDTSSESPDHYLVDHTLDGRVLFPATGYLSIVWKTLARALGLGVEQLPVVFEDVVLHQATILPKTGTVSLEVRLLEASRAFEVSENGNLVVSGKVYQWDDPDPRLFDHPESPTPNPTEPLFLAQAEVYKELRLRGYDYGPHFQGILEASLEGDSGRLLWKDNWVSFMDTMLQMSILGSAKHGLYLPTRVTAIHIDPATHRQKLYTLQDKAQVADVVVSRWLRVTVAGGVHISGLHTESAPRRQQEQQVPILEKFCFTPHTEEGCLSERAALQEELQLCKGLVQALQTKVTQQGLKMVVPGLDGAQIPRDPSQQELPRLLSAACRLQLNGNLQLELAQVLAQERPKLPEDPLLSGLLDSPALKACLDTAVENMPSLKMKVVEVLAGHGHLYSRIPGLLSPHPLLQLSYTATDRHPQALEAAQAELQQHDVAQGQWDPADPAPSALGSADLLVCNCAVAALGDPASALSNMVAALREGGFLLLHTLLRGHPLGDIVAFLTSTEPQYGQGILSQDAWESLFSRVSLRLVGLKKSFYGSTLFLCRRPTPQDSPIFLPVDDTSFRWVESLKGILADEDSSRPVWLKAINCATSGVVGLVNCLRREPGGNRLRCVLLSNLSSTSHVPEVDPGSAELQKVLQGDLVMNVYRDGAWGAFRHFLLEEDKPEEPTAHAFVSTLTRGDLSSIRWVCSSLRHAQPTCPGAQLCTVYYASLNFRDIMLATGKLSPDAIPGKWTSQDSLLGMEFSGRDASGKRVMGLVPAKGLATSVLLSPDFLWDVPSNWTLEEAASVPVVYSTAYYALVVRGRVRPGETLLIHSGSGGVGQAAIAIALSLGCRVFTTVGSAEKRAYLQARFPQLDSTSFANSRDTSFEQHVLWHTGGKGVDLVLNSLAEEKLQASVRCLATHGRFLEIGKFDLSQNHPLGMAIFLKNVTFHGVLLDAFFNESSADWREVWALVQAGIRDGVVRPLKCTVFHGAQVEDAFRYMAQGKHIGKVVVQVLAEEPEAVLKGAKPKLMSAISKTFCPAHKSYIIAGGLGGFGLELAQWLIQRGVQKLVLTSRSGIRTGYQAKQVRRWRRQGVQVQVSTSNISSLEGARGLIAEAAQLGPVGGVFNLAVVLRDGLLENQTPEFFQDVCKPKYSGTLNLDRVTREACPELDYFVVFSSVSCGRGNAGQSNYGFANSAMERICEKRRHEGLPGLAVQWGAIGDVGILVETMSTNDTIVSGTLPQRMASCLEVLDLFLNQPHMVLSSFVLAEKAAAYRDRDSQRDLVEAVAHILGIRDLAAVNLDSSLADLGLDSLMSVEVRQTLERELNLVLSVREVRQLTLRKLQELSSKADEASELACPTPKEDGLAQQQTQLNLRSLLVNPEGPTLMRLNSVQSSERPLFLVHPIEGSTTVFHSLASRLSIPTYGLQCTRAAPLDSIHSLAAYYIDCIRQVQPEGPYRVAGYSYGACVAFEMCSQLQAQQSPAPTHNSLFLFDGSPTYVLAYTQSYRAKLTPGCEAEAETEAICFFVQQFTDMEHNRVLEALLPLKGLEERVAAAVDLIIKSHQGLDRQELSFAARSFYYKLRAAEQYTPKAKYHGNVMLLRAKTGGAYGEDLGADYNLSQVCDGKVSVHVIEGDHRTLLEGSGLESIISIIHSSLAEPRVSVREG
Sequence of Genome polyprotein (P29990 2492-3391 limits assumed): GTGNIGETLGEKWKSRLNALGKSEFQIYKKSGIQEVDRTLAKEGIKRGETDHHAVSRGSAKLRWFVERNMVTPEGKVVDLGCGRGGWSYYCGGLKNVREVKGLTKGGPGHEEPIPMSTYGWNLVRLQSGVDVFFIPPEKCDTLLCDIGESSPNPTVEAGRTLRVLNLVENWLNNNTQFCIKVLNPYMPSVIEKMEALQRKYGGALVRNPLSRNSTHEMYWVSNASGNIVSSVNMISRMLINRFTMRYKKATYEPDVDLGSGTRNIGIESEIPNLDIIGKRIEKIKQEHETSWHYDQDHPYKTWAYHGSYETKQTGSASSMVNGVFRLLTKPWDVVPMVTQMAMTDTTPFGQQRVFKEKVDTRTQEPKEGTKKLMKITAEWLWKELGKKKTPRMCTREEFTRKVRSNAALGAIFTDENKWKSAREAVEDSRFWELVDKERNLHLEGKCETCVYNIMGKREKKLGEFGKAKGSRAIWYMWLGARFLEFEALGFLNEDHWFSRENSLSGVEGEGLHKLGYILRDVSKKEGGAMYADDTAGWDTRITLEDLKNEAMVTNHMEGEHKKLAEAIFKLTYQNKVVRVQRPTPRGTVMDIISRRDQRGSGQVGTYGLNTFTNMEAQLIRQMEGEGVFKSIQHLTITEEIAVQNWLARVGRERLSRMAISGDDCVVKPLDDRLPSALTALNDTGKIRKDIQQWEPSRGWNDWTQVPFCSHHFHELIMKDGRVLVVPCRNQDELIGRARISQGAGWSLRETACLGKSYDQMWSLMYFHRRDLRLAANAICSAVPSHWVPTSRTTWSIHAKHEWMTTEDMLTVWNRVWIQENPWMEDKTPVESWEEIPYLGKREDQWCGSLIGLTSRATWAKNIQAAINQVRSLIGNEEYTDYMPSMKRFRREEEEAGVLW
Sequence of Induced myeloid leukemia cell differentiation protein Mcl-1 (Q07820 whole entry): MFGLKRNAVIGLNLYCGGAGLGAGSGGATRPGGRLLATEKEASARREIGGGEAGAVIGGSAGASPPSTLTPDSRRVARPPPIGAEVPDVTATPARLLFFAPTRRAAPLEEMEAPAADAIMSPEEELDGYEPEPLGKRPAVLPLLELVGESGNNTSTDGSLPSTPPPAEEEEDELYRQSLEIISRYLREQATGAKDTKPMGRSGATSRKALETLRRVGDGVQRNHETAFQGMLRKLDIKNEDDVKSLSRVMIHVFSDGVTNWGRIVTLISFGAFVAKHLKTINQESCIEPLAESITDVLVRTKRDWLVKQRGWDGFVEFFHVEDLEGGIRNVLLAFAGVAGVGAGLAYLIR

COc1cc(/C=N/NC(=O)C(Cc2c[nH]c3ccccc23)NC(=O)OCc2ccccc2)cc([N+](=O)[O-])c1O (configuration not stated)
IC50 (Fatty acid synthase [1]): 5.95 µM (active) | IC50 (Fatty acid synthase [2]): 8.12 µM (active) | IC50 (Aminopeptidase N): 4.75 µM (active) | IC50 [3]: 6.11 µM (active)

COc1ccc(C(C)=O)cc1CSc1nc2cc(C(=O)O)ccc2c(=O)n1Cc1ccccc1
IC50 (Aminopeptidase N): 83.5 µM (active)

Cc1ccc(-c2ccc(/C=N/NC3=NC(=O)C(CC(=O)O)S3)o2)c([N+](=O)[O-])c1 (configuration not stated)
IC50 (Genome polyprotein): 88.6 µM (active) | EC50 (Protein RecA): 10.5 µM (active) | AC50 [4]: 26.5 µM (active) | IC50 (Leucine aminopeptidase): 101 µM (active)

COc1ccccc1NC(=O)Nc1nn(C)c2cccc(OC)c12
CC50 [5]: 41.1 µM (active) | IC50 (cells): 41.2 µM (active)

C#CCCOC(=O)N1C2=NC(C(=O)OC)=C(C(=O)OC)[C@@H]3N(CC=C)c4ccccc4[C@]23C[C@H]1C(=O)OC
IC50 (Aminopeptidase N): 58.5 µM (active)

Oc1c(C(c2cccs2)N2CCN(c3ccccc3)CC2)ccc2cccnc12 (configuration not stated)
IC50 [6]: > 64 µM (inactive)

Cc1ccc(S(=O)(=O)N2CCN(C(C)C(=O)Nc3ccccc3-c3ccccc3)CC2)cc1 (configuration not stated)
IC50 [6]: > 64 µM (inactive)

COc1ccc(OCC(=O)N2CC3(C)CC2CC(C)(C)C3)cc1 (configuration not stated)
IC50 [6]: > 64 µM (inactive)

Cc1ccc(S(=O)(=O)N(C)CCCC(=O)Nc2cc(C)ccc2C)cc1
IC50 (Nonstructural protein 1): 22.9 µM (active)

CCCOc1ccc(N2C(=O)CC(N(Cc3ccc(OC)cc3)C(S)=Nc3ccccc3)C2=O)cc1 (configuration not stated)
CC50 [5]: > 50 µM (active) | IC50 (cells): 7.34 µM (active)

C[n+]1c(/C=C/c2ccc(O)cc2)ccc2ccccc21
IC50 (Nonstructural protein 1): > 100 µM (active) | EC50 (H4): 7.6 µM (active) | EC50 [7]: 5.65 µM (active) | EC50 [8]: 12.5 µM (active)

CC1(C)Oc2ccc3ccc(=O)oc3c2C(/C=N/NC(N)=S)=C1O
IC50 (Nonstructural protein 1): 26.6 µM (active) | EC50 [9]: 3.2 µM (active) | EC50 (Streptococcus): 22.8 µM (active) | EC50 (Streptokinase A): > 150 µM (not active)

Cc1nn(-c2ccccc2)c2c1C(c1ccc([N+](=O)[O-])cc1)N1C(=N2)C(=O)Nc2ccccc21 (configuration not stated)
CC50 [5]: 34.8 µM (active) | CC50 [10]: 39.3 µM (active) | IC50 (cells): 31.5 µM (active)

CC(=O)C1=C(C)NC(SCc2ccc(C#N)cc2)=C(C#N)C1c1ccco1 (configuration not stated)
IC50 [6]: > 64 µM (inactive)

Cc1ccc(O)c(NC(=S)NC(=O)Cc2ccc(Cl)cc2)c1
CC50 [5]: 29.4 µM (active) | IC50 (cells): 23.4 µM (active)
